The text below walks through data of US20100310459A1, “Targeted Detection of Dysplasia In Barrett's Esophagus With A Novel Fluorescence-Labeled Polypeptide” (THE REGENTS OF THE UNIVERSITY OF MICHIGAN, priority 2009, published 2010).

Assay [1] concerns OE33 esophageal adenocarcinoma cells. The experiment in a line: Competitive inhibition assay (peptide vs SNFYMPL-phage). The class given is cell-based, human. The following applies: peptide at 100, 200, and 400 μM. The procedure: Competitive inhibition assay. The OE33 and Q-hTERT cells were detached and blocked. […] pfu of SNFYMPL-phage was incubated with OE33 cells (1×10^7) or Q-hTERT cells (1×10^7), ‘SNFYMPL-GGGSK’ peptide or scrambled peptide ‘NLMPYFS-GGGSK’ were added into cell-phage mixture at the concentration of 100, 200, and 400 μm for competition with the phage. After washing three times with PBS/0.1% (v/v) Tween-20 and one time with 0.2 M glycine, pH 2.2/0.1% BSA for two minutes, the bound phage were recovered and titered. Every sample was carried out in triplicate. The amount of bound phage in every sample was […].

Assay [2] has as its system Human endoscopic mucosal resection (EMR) specimens of esophageal mucosa. The experiment in a line: Fluorescence-labeled polypeptide binding to endoscopic mucosal resection (EMR) specimens. Particulars: for mean fluorescence intensity value: 100 μm, 5 minutes. The procedure: Human endoscopic mucosal resection (EMR) specimens were freshly taken from regions of suspected dysplastic mucosa. Each specimen was incubated with the FITC-labeled polypeptide of SEQ ID NO: 1 at a concentration of 100 μm for 5 minutes. Ink was used to mark the 12 o'clock position for orientation. White light stereo microscope (Olympus SZX16) images were obtained with an overlying 20×20 mm grid to register the histology. Fluorescence images were obtained at an exposure of 12 ms. The tissue was then fixed in formalin. An expert GI pathologist sectioned the specimens along cross-sections at ˜2 mm intervals longitudinally and interpreted the histopathology while blinded to the fluorescence images. The mean intensity of the fluorescence images in each 1 mm interval was measured using the NIH Image J processing software and compared with histology.

In assay [3] the test system is OE33 (esophageal adenocarcinoma) cells. The experiment in a line: Fluorescence images for peptide binding on culture cells. It is filed as cell-based, human. Particulars: for intensity associated with binding to the cell surface: OE33. Here is the method: (§1) Fluoresence images for peptide binding on culture cells. The OE33 and QhTERT cells were grown in chamber slides to 80% confluence. Blocking of non-specific binding to these cells was performed by adding 200 μl of 1% BSA diluted in PBS for 30 min. The cells were then incubated with […] of the candidate FITC-labeled peptide in serum free media for 10 minutes at room temperature. The cells were washed 3 times using 200 μL PBS/0.5% TWEEN 20 in room temperature. The cells were fixed in ice cold 4% praformaldehyde for 5 minutes. The cells were then stained with Vectashield mounting medium containing DAPI. Fluorescence images were collected with a confocal microscope (Nikon 1000) at 200×. The fluorescence intensity from the cells in 3 images was averaged to assess for peptide binding using NIH Image J software.

The subject of assay [4] is Q-hTERT (intestinal metaplasia) cells. The description is as above. It is filed as cell-based. The procedure: as §1
For assay [5] the test system is unchanged. The experiment in a line: Target peptide binding to cell surface targets. It is filed as cell-based. The following applies: 100 μM.
Assay [6] relates to SEG1 (adenocarcinoma) cells. The experiment in a line: Target peptide binding to cell surface targets. The following applies: 100 μM. The class given is cell-based. Here is the method:
Identification of plasma membrane targets on adenocarcinoma cells that affinity bind to “ASYNYDA” (SEQ ID NO: 5). The carboxyl end of the target peptide was linked to affinity column beads using EDC chemistry. Seg-1 cells were grown to confluency, lysed by sonification, and fractionated by centrifugation. The resulting membrane fractions were applied to the target peptide labeled column and specific binding proteins were eluted. These proteins were separated and collected in fractions by a reverse phase column using a Beckman PF 2D liquid chromatography apparatus. The protein fractions were spotted on a nitrocellulose coated micro array printer slide and probed with the FITC-labeled target peptide. The fluorescence intensities at each spot were quantified with an Axon Imager. Protein fractions with the highest intensity were trypsinized, and proteomic analysis was performed using a Finnigan LTQ linear ion trap mass spectrometer. The protein identities were confirmed using an International Protein Index (IPI) database search, utilizing the SEQUEST program and with open source Xtandem and peptide and protein prophet software. […] See Table 1 below for list of targets identified. All identified proteins were either an exact match or >0.99.

A further assay relates to 0E-21 (squamous) cells. The experiment in a line: Target peptide binding to cell surface targets. Particulars: 100 μM. The class given is cell-based.

Primed or numbered codes have the meaning given here. Where no end group is shown, it is not given here. FITC′ = not defined here

Regarding “NLMPYFS-GGGSK (NLMPYFSGGGSK) [scrambled control peptide, reference compound]”, the “inhibition of SNFYMPL-phage binding to OE33 cells” value in assay [1] was “no inhibition ability”; in assay [1] (listed as scrambled peptide ‘NLMPYFS’), “did not inhibit”.
Take SNFYMPL-GGGSK: the “inhibition of SNFYMPL-phage binding to OE33 cells” value in assay [1] is recorded as “could obviously inhibit”; in assay [1] (listed as ‘SNFYMPL’ peptide), “significantly inhibited the SNFYMPL-phage binding to the OE33 cells in a concentration dependent manner”.
For “SNFYMPL-GGGSK-FITC (SNFYMPLGGGSK-{FITC′}) [FITC conjugated at the C-terminus of SNFYMPL via the GGGSK linker]”, the “mean fluorescence intensity value” is recorded as 56.5 gray levels in assay [2] (dysplasia (n=69 sites)), 24.1 gray levels in assay [2] (gastric mucosa (n=35 sites)), 42.1 gray levels in assay [2] (intestinal metaplasia (n=66 sites)) and 27.1 gray levels in assay [2] (squamous (n=107 sites)). Besides, the “binding to Barrett's dysplasia” value in assay [2] (mucosal surface areas on the centimeter scale) was “Selective binding”. In addition, the “intensity associated with binding to the cell surface” value in assay [3] (FIG. 3 legend) turned out to be 69±18; in assay [3] (NIH Image J), 69 mean grey value; in assay [4] (FIG. 3 legend), 25.7±2.5; in assay [4] (NIH Image J), 25.7 mean grey value. Moreover, the “cells with peptide bound to the plasma membrane” value in assay [3] (OE33 cells, FITC-labeled peptide, 10 minutes) is given as over 90%.
For the substance ASYNYDA, the “binding to cell surface targets” value is “lack of binding” in assay [5], “preferential binding” in assay [6] and “lack of binding” in the assay on 0E-21 (squamous) cells.
